Results from PubChem BioAssay AID2060495 (Molecular Pharmacology Branch, DTP, NCI, 2025).

Tested on: 521955-158-R2-J5-PDC complex spheroid viability
Test: Anticancer human tumor 521955-158-R2-J5-PDC patient-derived pancreatic carcinoma cell line growth inhibition [GQUAD]
Settings: for IC50: curve of first compound; for viability, T/C: stronger effect = lower value
Excerpt: DNA G-quadruplex Stabilizer Agents in Combinations in Complex Spheroids
A high-throughput screen of multi-cell type tumor spheroids was designed to identify active combinations of DNA G-quadruplex stabilizer agents and targeted small molecules. Complex spheroids include a stromal component modeled by human endothelial cells (HUVEC) and fibroblasts modeled by human mesenchymal stem cells (MSCs). The concentration ranges selected for each drug and investigational agent were based upon clinically achievable concentrations if the clinical Cmax of the agent was known.
Compounds. The drugs and investigational agents: pidnarulex (CX-5461; NSC782164), APTO-253 (NSC789042), BRACO-19 (NSC847499), peposertib (NSC802822), ceralasertib (NSC780249), elimusertib (NSC800525), camonsertib (NSC841442), AZD-1390 (NSC803789), olaparib (NSC753686), talazoparib (NSC767125), ART-558 (NSC835418), sotorasib (NSC818433), MRTX-1133 (NSC836407), SN-38 (NSC673596), topotecan (NSC609699), etoposide (NSC141540), doxorubicin (NSC123127), gemcitabine (NSC613327), 5-fluorouracil (NSC19893), paclitaxel (NSC125973), vemurafenib (NSC761431), panobinostat (NSC761190), R-306465 (JNJ-16241199; NSC773264), adavosertib (NSC754352), TP-3654 (NSC805149), carboplatin (NSC241240), KSQ-4279 (NSC840948), and staurosporine (NSC755774) were obtained from the National Cancer Institute (NCI) Developmental Therapeutics Program Chemical Repository (34). The FDA-approved anticancer drug set is available from the NCI Developmental Therapeutics Program. […] The stock solutions were prepared in dimethyl sulfoxide (DMSO, Sigma-Aldrich, St. Louis, MO, cat. D2650) at 800-fold the tested concentration and stored at -70 degrees C prior to their use. All drugs and investigational agents were tested over a range starting from a high concentration at or near the clinical Cmax and decreasing in half-log increments. If the clinical Cmax for an agent had not been determined, the highest concentration tested was 10 microM.
2.3 Cell Culture. All cells were maintained in an incubator at 37 degrees C and 5% CO2 with 95% humidity. The PDC lines were cultured according to standard operating procedures established by the NCI PDMR. All PDCs were thawed and cultured in Matrigel-coated flasks prepared with a working solution of 1X Ham's F-12 nutrient mix, without supplementation (Invitrogen, cat. 11765054), 100 U/mL penicillin-streptomycin (Invitrogen, cat. 15140122), and 2.5% Matrigel (Corning Inc., cat. 354248) for the first three passages. The 857933-349-R-J2-PDC line was cultured in 6C/Colon 1B media, which includes advanced DMEM/F-12 (Thermo Fisher Scientific, cat. 12634028), 10 mM HEPES (Thermo Fisher Scientific, cat. 15630080), 1X GlutaMAX supplement (Thermo Fisher Scientific, cat. 35050061), 0.1 mg/mL primocin (InvivoGen, cat. ant-pm-2), 10% defined fetal bovine serum, heat inactivated (HyClone Laboratories Inc., cat. SH30070.03HI), 50% L-WRN conditioned media (ATCC, cat. CRL-3276), 1.25 mM N-Acetyl-L-cysteine (Sigma-Aldrich, cat. A9165), 10 mM nicotinamide (Sigma-Aldrich, cat. N0636), 1X B-27 supplement (Thermo Fisher Scientific, cat. 17504044), 1X N-2 supplement (Thermo Fisher Scientific, cat. 17502048), 10 microM Y-27632 dihydrochloride (Tocris Bioscience, cat. 1254), and 50 ng/mL human EGF recombinant protein (Thermo Fisher Scientific, cat. PHG0311). The 485176-168-R4-J1-PDC line was cultured in Panc media, which includes all 6C/Colon 1B media components plus 100 ng/mL human FGF-10 (Thermo Fisher Scientific, cat. 100-26), 500 nM SB-431542 (Selleckchem, cat. S1067), and gastrin (Tocris, cat. 3006).
[…]

[1] = second compound 0.0316 µM, first compound 0.0316 µM
[2] = second compound 0.0316 µM, first compound 0.316 µM
[3] = second compound 0.1 µM, first compound 0.0316 µM
[4] = second compound 0.1 µM, first compound 0.316 µM
[5] = second compound 0.316 µM, first compound 0.0316 µM
[6] = second compound 0.316 µM, first compound 0.316 µM
[7] = second compound 1 µM, first compound 0.0316 µM
[8] = second compound 1 µM, first compound 0.316 µM
[9] = second compound 3.16 µM, first compound 0.0316 µM
[10] = second compound 3.16 µM, first compound 0.316 µM
[11] = second compound 10 µM, first compound 0.0316 µM
[12] = second compound 10 µM, first compound 0.316 µM
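Further: spheroids exposed to agents for one week before reading.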
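Wherever viability, T/C is given: 100% = DMSO vehicle control viability.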

Molecule `O=c1[nH]cc(F)c(=O)[nH]1` + Cc1[nH]c2ccc(F)cc2c1-c1nc2c3cccnc3c3ncccc3c2[nH]1 has an IC50 (second compound 0.0316 µM) of 3720 nM, an IC50 (second compound 0.1 µM) of 4880 nM and an IC50 (second compound 0.316 µM) of 3090 nM. For the same molecule, the IC50 (second compound 1 µM) was 2480 nM, the IC50 (second compound 3.16 µM) was 2530 nM and the IC50 (second compound 10 µM) was 2080 nM. For the same molecule, the viability, T/C [1] was 110%, the viability, T/C (second compound 0.0316 µM, first compound 0.1 µM) was 84.6% and the viability, T/C [2] was 76%. It also gave a viability, T/C (second compound 0.0316 µM, first compound 1 µM) of 96.7%, a viability, T/C (second compound 0.0316 µM, first compound 3.16 µM) of 55% and a viability, T/C (second compound 0.0316 µM, first compound 10 µM) of 19.6%. It also gave a viability, T/C [3] of 99.6%, a viability, T/C (second compound 0.1 µM, first compound 0.1 µM) of 97.1% and a viability, T/C [4] of 90.7%. For the same molecule, the viability, T/C (second compound 0.1 µM, first compound 1 µM) was 89.6%, the viability, T/C (second compound 0.1 µM, first compound 3.16 µM) was 67% and the viability, T/C (second compound 0.1 µM, first compound 10 µM) was 21.1%. It also gave a viability, T/C [5] of 90.9%, a viability, T/C (second compound 0.316 µM, first compound 0.1 µM) of 94.3% and a viability, T/C [6] of 104%. It also gave a viability, T/C (second compound 0.316 µM, first compound 1 µM) of 97.8%, a viability, T/C (second compound 0.316 µM, first compound 3.16 µM) of 48.9% and a viability, T/C (second compound 0.316 µM, first compound 10 µM) of 16.2%. The viability, T/C [7] was 95.2%, the viability, T/C (second compound 1 µM, first compound 0.1 µM) was 114% and the viability, T/C [8] was 91.1%. It also gave a viability, T/C (second compound 1 µM, first compound 1 µM) of 91.4%, a viability, T/C (second compound 1 µM, first compound 3.16 µM) of 38.9% and a viability, T/C (second compound 1 µM, first compound 10 µM) of 22%. It also gave a viability, T/C [9] of 106%, a viability, T/C (second compound 3.16 µM, first compound 0.1 µM) of 97.2% and a viability, T/C [10] of 107%. For the same molecule, the viability, T/C (second compound 3.16 µM, first compound 1 µM) was 104%, the viability, T/C (second compound 3.16 µM, first compound 3.16 µM) was 37.1% and the viability, T/C (second compound 3.16 µM, first compound 10 µM) was 18.2%. For the same molecule, the viability, T/C [11] was 105%, the viability, T/C (second compound 10 µM, first compound 0.1 µM) was 104% and the viability, T/C [12] was 103%. The viability, T/C (second compound 10 µM, first compound 1 µM) was 88.5%, the viability, T/C (second compound 10 µM, first compound 3.16 µM) was 28% and the viability, T/C (second compound 10 µM, first compound 10 µM) was 19.3%.
For `CC[C@@]1(O)C(=O)OCc2c1cc1n(c2=O)Cc2cc3c(CN(C)C)c(O)ccc3nc2-1` + Cc1[nH]c2ccc(F)cc2c1-c1nc2c3cccnc3c3ncccc3c2[nH]1, the IC50 (second compound 0.0316 µM) was 54.2 nM, the IC50 (second compound 0.1 µM) was 65.6 nM and the IC50 (second compound 0.316 µM) was 66.3 nM. The IC50 (second compound 1 µM) was 67.2 nM, the IC50 (second compound 3.16 µM) was 61 nM and the IC50 (second compound 10 µM) was 69.3 nM. For the same molecule, the viability, T/C (second compound 0.0316 µM, first compound 0.000999 µM) was 108%, the viability, T/C (second compound 0.0316 µM, first compound 0.00316 µM) was 96.6% and the viability, T/C (second compound 0.0316 µM, first compound 0.00999 µM) was 123%. It also gave a viability, T/C [1] of 69.8%, a viability, T/C (second compound 0.0316 µM, first compound 0.0999 µM) of 29% and a viability, T/C [2] of 9.65%. The viability, T/C (second compound 0.1 µM, first compound 0.000999 µM) was 90.7%, the viability, T/C (second compound 0.1 µM, first compound 0.00316 µM) was 115% and the viability, T/C (second compound 0.1 µM, first compound 0.00999 µM) was 100%. For the same molecule, the viability, T/C [3] was 91.8%, the viability, T/C (second compound 0.1 µM, first compound 0.0999 µM) was 26% and the viability, T/C [4] was 10.2%. For the same molecule, the viability, T/C (second compound 0.316 µM, first compound 0.000999 µM) was 104%, the viability, T/C (second compound 0.316 µM, first compound 0.00316 µM) was 120% and the viability, T/C (second compound 0.316 µM, first compound 0.00999 µM) was 109%. For the same molecule, the viability, T/C [5] was 84.7%, the viability, T/C (second compound 0.316 µM, first compound 0.0999 µM) was 30.9% and the viability, T/C [6] was 9.94%. It also gave a viability, T/C (second compound 1 µM, first compound 0.000999 µM) of 115%, a viability, T/C (second compound 1 µM, first compound 0.00316 µM) of 97% and a viability, T/C (second compound 1 µM, first compound 0.00999 µM) of 115%. For the same molecule, the viability, T/C [7] was 95.3%, the viability, T/C (second compound 1 µM, first compound 0.0999 µM) was 26.1% and the viability, T/C [8] was 9.43%. It also gave a viability, T/C (second compound 3.16 µM, first compound 0.000999 µM) of 115%, a viability, T/C (second compound 3.16 µM, first compound 0.00316 µM) of 108% and a viability, T/C (second compound 3.16 µM, first compound 0.00999 µM) of 103%. The viability, T/C [9] was 70.8%, the viability, T/C (second compound 3.16 µM, first compound 0.0999 µM) was 34.1% and the viability, T/C [10] was 10.8%. It also gave a viability, T/C (second compound 10 µM, first compound 0.000999 µM) of 91.8%, a viability, T/C (second compound 10 µM, first compound 0.00316 µM) of 98% and a viability, T/C (second compound 10 µM, first compound 0.00999 µM) of 97.9%. For the same molecule, the viability, T/C [11] was 84.7%, the viability, T/C (second compound 10 µM, first compound 0.0999 µM) was 33.8% and the viability, T/C [12] was 15.6%.
